Values quoted from earlier work in patent US20260014110A1, “RETINOIC ACID-ALCOHOL AMINE COMPLEX, PREPARATION METHOD AND APPLICATION THEREOF” (NANJING INDETEK LABORATORY CO., LTD., priority 2022, published 2026).
In brackets after ≈: the same amount, converted by molar mass. Where two headings read alike, the source gives them in different places.

solubility in water (Chinese Pharmacopoeia 2020, volume II): extremely difficult to dissolve in water
solubility in water (literature (Ascenso et al. 2011)): 1.06 µM (≈ 0.318 µg/mL)
SMILES: CC1=C(/C=C/C(C)=C/C=C/C(C)=C/C(=O)O)C(C)(C)CCC1 [retinoic acid]
